In experiment [1] the test system is female Lewis rats with SCW-induced arthritis. The experiment is described as follows: Efficacy in rats with SCW-induced arthritis (ankle thickness, clinical scores). Format: in vivo, rat. As to the method: To induce arthritis, Female Lewis (LEW/N) rats, 5-6 weeks of age (80-100 g) were injected (i.p.) with SCW PG-PS as described above. Eighteen days later, arthritis was well established. Calipers were used to measure the width (anterior to posterior surface) of the left and right hind ankles of each rat. Each ankle was measured 3 times and averaged, and treatment groups were randomized based on ankle thickness (Table 6). Commencing on day 18, randomized groups of arthritic rats (n=5 rats/group) received vehicle or 5, 20, or 50 mg/kg Example 2 BID by oral gavage. Vehicle consisted of an aqueous mixture containing 2% (v:v) N-methylpyrrolidone, 5% (v:v) glycerine, and 20% (w:v) captisol. Treatment continued daily through the morning of day 26.
By day 18 mean ankle thickness was increased an average of >4.4 mm compared to disease free rats. Rats treated with vehicle alone continued to gradually develop a more severe arthritis based on ankle thickness measurements over the eight-day treatment period (Table 6). […] By day 26, the disease associated increase in ankle thickness had been reduced 27, 37, and 46 percent by 5, 20, and 50 mg/kg Example 2, respectively.
Hind paw inflammation clinical scores were assigned based on swelling and erythema.

Experiment [2] concerns the target T1, MMP9 (Rattus norvegicus, UniProt P50282).
T1 construct: Pro and active MMP9 were abundantly present in ankles of SCW-induced vehicle-treated rats; from tissue; host or cells: tibia-tarsus joints (ankles) of female Lewis rats
Description: Pro and active MMP9 in ankles of rats with SCW-induced arthritis by Western blot. It is filed as in vivo. The following applies: day 26, four hours after the AM dose, mAb-L51/82. As to the method: Hind-limbs were skinned, severed just above the tibia-tarsus joint and below the metatarsals, and the tibia-tarsus joints (ankles) were weighed, snap frozen and pulverized on dry ice using a hammer and anvil. The pulverized tissue was suspended in 3 volumes (w:v) of ice-cold homogenization buffer containing 50 mM Tris pH 7.5, 150 mM NaCl, 5 mM EDTA, 1% Triton X100, 0.05% Brij 30, 10% dimethylsulfoxide and Complete EDTA-free Protease Inhibitor Cocktail (Roche Diagnostics). The suspended tissue was homogenized sequentially with a Kinematica AG Polytron and a Dounce homogenizer. Homogenates were centrifuged at 16,000×g for 10 min at 4° C. and the soluble fractions were saved. Dimethylsulfoxide was removed from a portion of each soluble fraction using PD MiniTrap™ G-25 desalting columns (GE Healthcare). Homogenates (0.25 mL), free of DMSO, were diluted with an equal volume of binding buffer (i.e., homogenization buffer without dimethylsufoxide) and adjusted to contain 50 μL of a 50% slurry of gelatin-conjugated sepharose. Following 2 hours of rotation at 4° C. the beads were washed twice in binding buffer and eluted in 100 μL 2×-reducing Laemmli buffer with heating to 95° C. for 5 minutes. […]

T1 sequence (P50282 108-708): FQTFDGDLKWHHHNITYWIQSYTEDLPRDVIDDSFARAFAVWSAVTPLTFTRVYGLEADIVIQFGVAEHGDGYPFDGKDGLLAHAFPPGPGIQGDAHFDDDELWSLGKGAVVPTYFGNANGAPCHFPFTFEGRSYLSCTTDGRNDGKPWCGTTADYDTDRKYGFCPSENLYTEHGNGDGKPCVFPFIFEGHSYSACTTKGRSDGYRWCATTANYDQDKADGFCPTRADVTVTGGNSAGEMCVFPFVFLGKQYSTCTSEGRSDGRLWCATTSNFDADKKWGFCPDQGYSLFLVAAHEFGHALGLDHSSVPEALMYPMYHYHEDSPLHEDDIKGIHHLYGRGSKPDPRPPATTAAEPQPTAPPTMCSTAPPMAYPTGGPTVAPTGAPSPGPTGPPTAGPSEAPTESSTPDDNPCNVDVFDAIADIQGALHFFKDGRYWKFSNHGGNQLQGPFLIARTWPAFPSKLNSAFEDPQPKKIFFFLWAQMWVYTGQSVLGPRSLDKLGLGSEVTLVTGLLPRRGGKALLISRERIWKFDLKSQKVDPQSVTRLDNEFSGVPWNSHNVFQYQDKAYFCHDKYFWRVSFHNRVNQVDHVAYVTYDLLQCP

On to `Cc1nc(C)c(-c2csc(Nc3cc(S(N)(=O)=O)ccc3OC(C)C)n2)s1` [Example 2, 3-(2′,4′-Dimethyl-[4,5′]bithiazolyl-2-ylamino)-4-isopropoxy-benzenesulfonamide.HBr], for which the “ankle thickness measurements” value in experiment [1] (5, 20, 50 mg/kg BID oral gavage Day 18-26) is listed as “dose-dependent decrease”. Further, the “clinical score measurements” value in experiment [1] (5, 20, 50 mg/kg BID, significant effects emerging at the 20 mg/kg dose) is reported as “dose dependent decrease”. The “abundance of proMMP9 in ankles” value in experiment [2] is “did not reduce”.
